± gives the expanded uncertainty stated by the source.
How the values were obtained:
[1] = Crystal; DTA
[2] = Molar enthalpy of transition or fusion; settings: Crystal; DSC

Structure (SMILES) | Normal melting temperature [1] [°C] | Molar enthalpy of transition or fusion [2] [kcal/mol]
Clc1ccccc1Cl [1,2-dichlorobenzene] | -17.30 ± 0.5 | 3.13 ± 0.0789
Clc1cccc(Cl)c1 [1,3-dichlorobenzene] | -24.90 ± 0.5 | 2.99 ± 0.0765
Clc1ccc(Cl)cc1 [1,4-dichlorobenzene] | 53.00 ± 0.5 | 4.32 ± 0.103
c1ccc2c(c1)ccc1ccccc12 [phenanthrene] | 98.90 ± 0.5 | 3.99 ± 0.0956

Reference: the NIST ThermoML archive (doi:10.1016/j.tca.2008.09.010)
